The source made the active and inactive calls.
How the values were obtained:
[1] = target: T1, Sentrin-specific protease 8 (Homo sapiens, UniProt Q96LD8); assay type: functional;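 note: luminescence read-out of SENP8 inhibition, dose-response confirmation following an ultra-high-throughput screen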
T1 sequence (Q96LD8 whole entry): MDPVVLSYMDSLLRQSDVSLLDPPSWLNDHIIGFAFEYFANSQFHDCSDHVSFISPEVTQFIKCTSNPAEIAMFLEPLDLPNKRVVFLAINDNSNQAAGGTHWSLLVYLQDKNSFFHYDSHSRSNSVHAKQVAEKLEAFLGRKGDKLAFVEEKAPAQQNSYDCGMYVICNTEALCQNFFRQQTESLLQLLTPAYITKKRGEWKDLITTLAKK

[2] = target: T2, Sentrin-specific protease 6 (Homo sapiens, UniProt Q9GZR1); assay type: functional;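 note: Luminescence-based dose-response confirmatory assay of SENP6 inhibition, following up an ultra-high-throughput screen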
T2 sequence (Q9GZR1 whole entry): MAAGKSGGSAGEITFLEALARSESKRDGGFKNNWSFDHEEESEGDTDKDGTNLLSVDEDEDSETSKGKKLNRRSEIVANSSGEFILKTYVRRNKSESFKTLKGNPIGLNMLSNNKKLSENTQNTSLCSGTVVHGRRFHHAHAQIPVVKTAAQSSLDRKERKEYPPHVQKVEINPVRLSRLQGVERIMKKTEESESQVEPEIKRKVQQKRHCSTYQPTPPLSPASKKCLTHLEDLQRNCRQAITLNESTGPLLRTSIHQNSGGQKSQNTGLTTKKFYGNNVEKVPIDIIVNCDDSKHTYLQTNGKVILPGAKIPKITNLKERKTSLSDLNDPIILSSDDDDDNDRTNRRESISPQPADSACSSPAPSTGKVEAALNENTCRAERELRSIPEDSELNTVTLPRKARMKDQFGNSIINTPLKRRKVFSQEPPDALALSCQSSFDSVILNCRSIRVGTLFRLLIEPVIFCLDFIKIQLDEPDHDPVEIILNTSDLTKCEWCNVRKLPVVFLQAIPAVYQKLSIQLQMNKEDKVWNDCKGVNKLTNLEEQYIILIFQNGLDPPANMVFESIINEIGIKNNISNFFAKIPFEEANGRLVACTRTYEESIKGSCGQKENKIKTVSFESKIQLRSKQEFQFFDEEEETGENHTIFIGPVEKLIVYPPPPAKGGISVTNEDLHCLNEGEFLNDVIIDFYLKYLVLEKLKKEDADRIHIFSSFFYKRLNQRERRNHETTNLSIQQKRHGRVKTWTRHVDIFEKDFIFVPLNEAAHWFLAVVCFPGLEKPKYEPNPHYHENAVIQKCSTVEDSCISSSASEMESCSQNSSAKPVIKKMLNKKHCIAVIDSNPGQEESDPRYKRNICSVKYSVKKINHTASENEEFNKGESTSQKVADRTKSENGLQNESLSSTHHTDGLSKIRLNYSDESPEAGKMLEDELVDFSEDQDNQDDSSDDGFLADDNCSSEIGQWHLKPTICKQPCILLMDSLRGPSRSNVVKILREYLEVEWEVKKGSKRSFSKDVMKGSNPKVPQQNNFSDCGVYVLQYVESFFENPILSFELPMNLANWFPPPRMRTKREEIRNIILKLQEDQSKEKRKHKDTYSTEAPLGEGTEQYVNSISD

[3] = target: T3, Sentrin-specific protease 7 (Homo sapiens, UniProt Q9BQF6); assay type: functional;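 note: Luminescence-based dose-response confirmation of ultra-high-throughput screening hits, measuring inhibition of SENP7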
T3 sequence (Q9BQF6 whole entry): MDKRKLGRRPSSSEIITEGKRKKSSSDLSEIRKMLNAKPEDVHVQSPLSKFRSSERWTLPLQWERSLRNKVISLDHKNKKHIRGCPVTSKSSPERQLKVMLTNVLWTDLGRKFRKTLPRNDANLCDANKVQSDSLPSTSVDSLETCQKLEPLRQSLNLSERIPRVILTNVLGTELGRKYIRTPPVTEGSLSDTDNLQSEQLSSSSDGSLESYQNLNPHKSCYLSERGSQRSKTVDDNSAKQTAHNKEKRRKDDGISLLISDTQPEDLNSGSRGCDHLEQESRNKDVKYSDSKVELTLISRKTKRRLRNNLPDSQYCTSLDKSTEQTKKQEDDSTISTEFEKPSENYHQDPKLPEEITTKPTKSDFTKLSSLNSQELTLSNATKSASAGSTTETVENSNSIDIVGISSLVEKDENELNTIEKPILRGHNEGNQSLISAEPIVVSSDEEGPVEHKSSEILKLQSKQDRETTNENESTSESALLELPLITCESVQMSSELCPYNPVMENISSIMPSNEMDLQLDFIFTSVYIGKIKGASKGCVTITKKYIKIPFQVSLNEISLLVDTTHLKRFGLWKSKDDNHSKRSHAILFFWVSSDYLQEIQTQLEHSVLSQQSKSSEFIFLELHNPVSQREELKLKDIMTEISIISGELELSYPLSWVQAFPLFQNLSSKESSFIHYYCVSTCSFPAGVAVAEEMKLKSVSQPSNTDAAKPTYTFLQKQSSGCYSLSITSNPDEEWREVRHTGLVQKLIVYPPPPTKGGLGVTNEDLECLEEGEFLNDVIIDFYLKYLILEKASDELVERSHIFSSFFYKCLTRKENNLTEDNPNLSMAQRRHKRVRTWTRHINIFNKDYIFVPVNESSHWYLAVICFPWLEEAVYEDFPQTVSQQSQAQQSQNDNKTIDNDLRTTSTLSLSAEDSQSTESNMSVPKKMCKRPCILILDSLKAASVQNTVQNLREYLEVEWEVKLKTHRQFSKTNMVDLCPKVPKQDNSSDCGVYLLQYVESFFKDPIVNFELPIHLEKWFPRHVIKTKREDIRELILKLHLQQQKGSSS

[4] = target: T4, Heat shock factor protein 1 (Mus musculus, UniProt P38532); assay: enhancement of HSF1-driven luciferase signal – cell-based, NIH3T3, luminescence, dose retest, confirmation (AID 435004); assay type: functional;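 note: stress induced by proteasome inhibitor MG132 added 30 min after compound; luciferase reporter driven by HSF1 response element in NIH3T3 cells; actives raise luminescence as potentiators of the MG132 stress response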
T4 sequence (P38532 whole entry): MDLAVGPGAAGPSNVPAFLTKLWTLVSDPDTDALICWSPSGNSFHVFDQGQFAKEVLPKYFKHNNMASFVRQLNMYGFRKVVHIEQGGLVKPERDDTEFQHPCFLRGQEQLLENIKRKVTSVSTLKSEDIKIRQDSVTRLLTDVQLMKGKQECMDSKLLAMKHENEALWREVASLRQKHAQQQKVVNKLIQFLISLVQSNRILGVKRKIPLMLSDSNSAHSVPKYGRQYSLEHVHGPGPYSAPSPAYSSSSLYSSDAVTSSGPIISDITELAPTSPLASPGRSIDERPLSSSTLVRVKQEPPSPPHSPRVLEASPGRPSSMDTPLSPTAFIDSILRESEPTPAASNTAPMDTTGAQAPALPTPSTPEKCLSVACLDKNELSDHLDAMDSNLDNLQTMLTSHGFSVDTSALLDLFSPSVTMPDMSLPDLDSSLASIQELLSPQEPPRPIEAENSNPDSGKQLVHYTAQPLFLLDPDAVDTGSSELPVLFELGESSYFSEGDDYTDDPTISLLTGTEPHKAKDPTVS

[5] = target: T5, Caspase-3 (Homo sapiens, UniProt P42574); assay type: functional;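 note: Dose-response selectivity test against caspase-3 for candidate inhibitors of sentrin-specific proteases (SENPs)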
T5 sequence (P42574 whole entry): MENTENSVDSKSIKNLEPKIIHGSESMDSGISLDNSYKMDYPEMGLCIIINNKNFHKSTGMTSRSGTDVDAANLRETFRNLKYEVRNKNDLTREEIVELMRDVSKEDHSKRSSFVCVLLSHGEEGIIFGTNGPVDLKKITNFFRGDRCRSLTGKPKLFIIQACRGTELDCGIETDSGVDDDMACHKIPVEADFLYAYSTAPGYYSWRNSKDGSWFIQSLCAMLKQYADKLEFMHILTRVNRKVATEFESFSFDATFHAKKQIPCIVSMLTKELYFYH

[6] = target: DNA dC->dU-editing enzyme APOBEC-3G (Homo sapiens, UniProt Q9HC16); assay type: functional;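 note: Dose-response counterscreen measuring inhibition of APOBEC3G DNA deaminase activity, run while confirming APOBEC3A inhibitors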
Sequence of DNA dC->dU-editing enzyme APOBEC-3G (Q9HC16 whole entry): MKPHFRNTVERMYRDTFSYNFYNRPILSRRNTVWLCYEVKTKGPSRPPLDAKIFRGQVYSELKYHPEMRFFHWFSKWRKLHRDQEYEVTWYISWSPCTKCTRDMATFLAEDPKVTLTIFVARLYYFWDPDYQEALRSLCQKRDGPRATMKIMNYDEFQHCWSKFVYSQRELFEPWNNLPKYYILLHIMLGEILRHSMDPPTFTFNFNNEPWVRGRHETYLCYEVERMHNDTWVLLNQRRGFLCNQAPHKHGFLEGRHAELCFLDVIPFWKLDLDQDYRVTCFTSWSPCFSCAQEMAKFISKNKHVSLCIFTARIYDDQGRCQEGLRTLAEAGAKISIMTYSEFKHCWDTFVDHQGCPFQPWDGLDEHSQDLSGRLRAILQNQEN

[7] = target: DNA dC->dU-editing enzyme APOBEC-3A (Homo sapiens, UniProt P31941); assay: Dose Response confirmation of small molecule APOBEC3A DNA Deaminase Inhibitors via a fluorescence-based single-stranded DNA deaminase assay. [Related pubchem assays (depositor defined):AID493011, AID493024]; assay type: functional
Sequence of DNA dC->dU-editing enzyme APOBEC-3A (P31941 whole entry, the tested form may be a part): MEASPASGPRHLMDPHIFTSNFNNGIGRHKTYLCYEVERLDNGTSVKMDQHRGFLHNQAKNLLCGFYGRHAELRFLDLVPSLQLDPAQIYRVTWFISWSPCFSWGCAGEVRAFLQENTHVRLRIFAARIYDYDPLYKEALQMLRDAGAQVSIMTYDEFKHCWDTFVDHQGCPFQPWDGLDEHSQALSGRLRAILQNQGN

[8] = target: T6, Carboxy-terminal domain RNA polymerase II polypeptide A small phosphatase 1 (Homo sapiens, UniProt Q9GZU7); assay: CTDSP1 inhibitors, concentration-response, biochemical, absorbance readout, ultra-high-throughput screen actives (AID 540297); assay type: functional
T6 sequence (Q9GZU7 whole entry): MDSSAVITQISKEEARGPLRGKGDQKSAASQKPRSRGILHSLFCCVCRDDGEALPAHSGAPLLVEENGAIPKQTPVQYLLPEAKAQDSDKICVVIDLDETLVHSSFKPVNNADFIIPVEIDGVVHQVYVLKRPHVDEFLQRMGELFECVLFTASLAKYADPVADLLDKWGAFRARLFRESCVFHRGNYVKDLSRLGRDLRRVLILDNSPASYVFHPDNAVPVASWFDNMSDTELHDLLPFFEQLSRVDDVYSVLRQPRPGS

[9] = target: T7, High affinity choline transporter 1 (Homo sapiens, UniProt Q9GZV3); assay: human choline transporter blockers, potency – cell-based, 5-point CRC, membrane potential dye, dose response (AID 504840); assay type: functional
T7 sequence (Q9GZV3 whole entry): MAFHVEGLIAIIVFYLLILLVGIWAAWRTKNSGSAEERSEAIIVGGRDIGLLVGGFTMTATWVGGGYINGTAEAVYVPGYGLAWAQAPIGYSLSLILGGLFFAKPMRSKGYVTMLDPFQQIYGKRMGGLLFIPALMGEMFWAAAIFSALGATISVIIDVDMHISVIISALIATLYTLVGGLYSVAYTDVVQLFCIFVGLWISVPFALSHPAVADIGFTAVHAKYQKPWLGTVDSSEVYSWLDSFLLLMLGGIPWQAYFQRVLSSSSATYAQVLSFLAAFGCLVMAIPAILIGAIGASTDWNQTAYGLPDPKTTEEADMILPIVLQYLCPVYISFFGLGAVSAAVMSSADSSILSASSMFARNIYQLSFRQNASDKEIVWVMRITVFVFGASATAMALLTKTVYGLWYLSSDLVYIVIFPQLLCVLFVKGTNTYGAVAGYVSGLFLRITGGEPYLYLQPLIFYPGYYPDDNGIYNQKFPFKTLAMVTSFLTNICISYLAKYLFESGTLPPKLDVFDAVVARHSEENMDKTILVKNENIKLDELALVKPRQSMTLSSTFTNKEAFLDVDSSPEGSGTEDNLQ

[10] = target: Cytochrome P450 3A4 (Homo sapiens, UniProt P08684);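 note: CYP3A4 tested as one member of a cytochrome P450 panel screen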
Sequence of Cytochrome P450 3A4 (P08684 whole entry): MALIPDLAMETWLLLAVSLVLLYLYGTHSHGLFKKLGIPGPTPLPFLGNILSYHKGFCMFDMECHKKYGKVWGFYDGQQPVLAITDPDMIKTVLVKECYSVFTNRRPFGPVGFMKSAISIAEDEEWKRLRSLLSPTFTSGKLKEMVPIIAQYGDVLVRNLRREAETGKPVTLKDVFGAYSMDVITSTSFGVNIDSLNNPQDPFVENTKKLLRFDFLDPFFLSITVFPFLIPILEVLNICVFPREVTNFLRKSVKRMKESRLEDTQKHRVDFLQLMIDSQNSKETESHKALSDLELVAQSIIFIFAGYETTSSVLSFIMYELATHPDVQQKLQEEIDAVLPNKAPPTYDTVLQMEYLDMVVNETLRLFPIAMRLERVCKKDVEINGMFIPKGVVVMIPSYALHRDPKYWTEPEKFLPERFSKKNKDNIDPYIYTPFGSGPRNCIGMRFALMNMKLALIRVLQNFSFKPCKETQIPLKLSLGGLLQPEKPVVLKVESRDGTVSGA

[11] = target: T8, Protein skinhead-1 (Caenorhabditis elegans, UniProt P34707); assay type: functional
T8 sequence (P34707 whole entry): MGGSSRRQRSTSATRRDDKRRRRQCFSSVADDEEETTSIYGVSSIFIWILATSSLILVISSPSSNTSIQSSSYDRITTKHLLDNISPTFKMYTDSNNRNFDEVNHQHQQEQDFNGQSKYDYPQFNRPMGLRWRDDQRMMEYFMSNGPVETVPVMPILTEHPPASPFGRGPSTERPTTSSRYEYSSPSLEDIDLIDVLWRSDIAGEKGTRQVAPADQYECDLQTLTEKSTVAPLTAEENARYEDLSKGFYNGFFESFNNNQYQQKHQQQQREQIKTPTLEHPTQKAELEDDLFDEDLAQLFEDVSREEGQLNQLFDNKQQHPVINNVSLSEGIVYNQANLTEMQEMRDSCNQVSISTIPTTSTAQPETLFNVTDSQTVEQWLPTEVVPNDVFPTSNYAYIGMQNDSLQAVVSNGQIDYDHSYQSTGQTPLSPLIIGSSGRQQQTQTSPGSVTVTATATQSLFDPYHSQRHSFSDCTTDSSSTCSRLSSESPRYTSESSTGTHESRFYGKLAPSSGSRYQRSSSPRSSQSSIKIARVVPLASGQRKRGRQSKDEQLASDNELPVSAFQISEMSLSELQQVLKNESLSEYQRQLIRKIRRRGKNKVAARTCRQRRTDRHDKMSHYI

[12] = target: Beta-2 adrenergic receptor (Homo sapiens, UniProt P07550); assay: ADRB2 activation measured by internalization – cell-based, FAP fluorogen, flow cytometry, cherry pick 1, dose response (AID 588763); assay type: functional
Sequence of Beta-2 adrenergic receptor (P07550 whole entry): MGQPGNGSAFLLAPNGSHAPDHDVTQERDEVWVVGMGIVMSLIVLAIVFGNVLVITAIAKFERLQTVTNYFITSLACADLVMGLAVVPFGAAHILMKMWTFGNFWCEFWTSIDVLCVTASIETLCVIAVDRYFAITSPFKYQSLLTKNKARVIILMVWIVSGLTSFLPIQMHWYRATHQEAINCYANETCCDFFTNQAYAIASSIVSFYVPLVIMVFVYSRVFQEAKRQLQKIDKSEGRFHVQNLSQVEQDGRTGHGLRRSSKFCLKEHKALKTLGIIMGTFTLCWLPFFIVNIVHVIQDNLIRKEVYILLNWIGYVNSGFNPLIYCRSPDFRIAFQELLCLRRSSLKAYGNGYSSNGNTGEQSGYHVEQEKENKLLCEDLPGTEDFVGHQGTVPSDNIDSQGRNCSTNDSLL

Cc1ccc(C(=O)c2sc3nsc(C)c3c2N)cc1
IC50 [1]: > 100 µM (inactive) | IC50 [2]: > 100 µM (inactive) | IC50 [3]: 4.6 µM (active) | EC50 [4]: > 260 µM (inconclusive) | IC50 [5]: 28.9 µM (active)

C[n+]1ccc(C(=O)NCc2ccccc2)cc1 [ENISAMIUM IODIDE]
IC50 [6]: 4.98 µM (active) | IC50 [7]: 2.98 µM (active) | IC50 [8]: 9.76 µM (active)

CC(C)OC(=O)CN1CCN(C2c3ccccc3-c3ccccc32)CC1
IC50 [9]: 10.7 µM (active) | AC50 [10]: 25.1 µM (inconclusive) | IC50 [11]: > 100 µM (inactive)

CS(=O)(=O)Nc1ccc(C(=O)Nc2ccc3ccccc3c2)cc1
IC50 [1]: > 100 µM (inactive) | IC50 [2]: > 100 µM (inactive) | IC50 [3]: 2.98 µM (active) | IC50 [5]: 6.3 µM (active)

C=COC(=O)CSc1nc(-c2cccs2)ccc1C#N
IC50 [1]: 8.96 µM (active) | IC50 [2]: 6.53 µM (active) | IC50 [3]: 16.4 µM (active) | IC50 [5]: 13.3 µM (active)

Cc1ncc(CN2CCCC(C(=O)Nc3ccc(-c4cccc(F)c4)cc3)C2)cn1 (stereo unspecified)
EC50 [12]: 0.695 µM (active)

COc1ccc(C2=NN(C(=O)c3cccs3)C(c3ccc(OC)cc3)C2)cc1 (stereo unspecified)
EC50 [12]: 4.84 µM (active)

O=C(Nc1cccc(Cl)c1)N1CCc2ccccc2C1
IC50 [1]: 26.1 µM (active) | IC50 [2]: 25.5 µM (active) | IC50 [3]: 7.31 µM (active) | IC50 [5]: 18.9 µM (active)

C[C@H]1CN([C@@H](C)CO)C(=O)Cc2cc(NS(=O)(=O)c3cn(C)cn3)ccc2O[C@@H]1CN(C)C(=O)Nc1ccc(F)cc1
IC50 [8]: 33.7 µM (active)

Reference: ChEMBL document CHEMBL1201862, “PubChem BioAssay data set” (2004)
